# Tests used:
# human platelets [1] = experiment: cGMP in human platelets; assay type: cell-based; conditions: washed human platelets in Tyrode's buffer
# Description: (§1) Fresh human platelets at 2×10^5 platelets/μl in Tyrode's buffer or PRP were pre-incubated with the indicated agents for 15 minutes and then challenged with DEA/NO for the indicated time interval at room temperature and total cGMP determined via immunoassay (Amersham, GE Healthcare, Buckinghamshire, UK). Murine WT and TSP1-null platelets were treated with DEA/NO and cGMP flux measured.
# [2] = tested on: murine ASMC (WT, CD36 null, CD47 null); experiment: Intracellular cGMP in murine ASMC; assay type: cell-based, mouse; conditions: WT MASMC
# Description: (§2) Murine ASMC were obtained from aortic segments harvested sterilely from C57B1/6 CD47 null or CD36 null mice as described (Ray et al., Methods Cell Sci 23:185-188, 2001) and cultured in SM-GM (Cambrex)+20% FCS. In the case of CD36 null cells, culture flasks were pre-coated with 1% gelatin prior to cell plating. Wild type C57B1/6 ASMC cultures were prepared as previously described (Isenberg et al., Matrix Biol 24:110-123, 2005). Cell culture purity was determined by immunohistochemistry staining for α-smooth muscle actin. Cells were used within passage 1 to 4 to minimize overgrowth of other cell types.
# HUVEC (10^4 cells/well) grown overnight in 96-well culture plates containing full growth medium with 2% FCS and weaned in growth medium without additives and 1% FCS over 24 hrs before treatment with NO donors and other agents in SM-GM without additives+0.1% BSA. Intracellular cGMP levels were determined according to the manufacturer's instructions using an enzyme immunoassay kit (Amersham Biosciences). In other experiments ASMC from wild type and CD36 or CD47 null mice were plated onto 96-well culture plates and incubated overnight in full growth medium. They were then weaned off serum as described to SM-GM+0.1% BSA and treated with NO donor and other agents as indicated. Intracellular cyclic nucleotides were determined via immunoassay.
# human platelets [3] = experiment: Thrombin-induced human platelet aggregation; assay type: cell-based; conditions: DEA/NO 10 μM
# Outline: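 Washed human platelets in Tyrode's buffer pH 7.4 (2×10^5/μl) are stirred at 1200 rpm and 37 °C, and optical aggregation is followed for 5 min; under static conditions, A400 is tracked for 5 min instead. TSP1 agents or 1 μM peptide C6d are pre-incubated for 15 min before thrombin ± DEA/NO (10 μM).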
# murine ASMC (CD47 null) = experiment: Murine ASMC proliferation; assay type: cell-based, mouse; conditions: CD47 null MASMC
# Description: as §2
# Proliferation of vascular cells was measured with a non-radioactive colorimetric assay (CellTiter 96, Promega, Madison, Wis.). Briefly, to each well of a 96-well culture plate (Nunc, Denmark) 5×10^3 cells were suspended in 100 μl of culture medium with indicated treatments and incubated for 72 hours at 37° C. in a 5% CO2 atmosphere. Following incubation 20 μl of tetrazolium compound/solubilization agent was added and incubation continued for 4 hours under the same conditions. The plate was then read on a MR580 Microelisa Auto Reader (Dynatech) at a wavelength of 490 nm. Appropriate zero time controls were run for all assays and the optical density readings obtained then subtracted from those obtained at 72 hours.
# cGK-I = biological target: T1, cGK-I (Homo sapiens, UniProt Q13976); experiment: cGK in vitro kinase assay of platelet lysates; assay type: biochemical; conditions: activation via sGC using DEA/NO in intact platelets
# T1 construct: endogenous in cells; host or cells: washed human platelets, treated intact, then lysed
# T1 sequence (Q13976 1-686 isoform Q13976-2): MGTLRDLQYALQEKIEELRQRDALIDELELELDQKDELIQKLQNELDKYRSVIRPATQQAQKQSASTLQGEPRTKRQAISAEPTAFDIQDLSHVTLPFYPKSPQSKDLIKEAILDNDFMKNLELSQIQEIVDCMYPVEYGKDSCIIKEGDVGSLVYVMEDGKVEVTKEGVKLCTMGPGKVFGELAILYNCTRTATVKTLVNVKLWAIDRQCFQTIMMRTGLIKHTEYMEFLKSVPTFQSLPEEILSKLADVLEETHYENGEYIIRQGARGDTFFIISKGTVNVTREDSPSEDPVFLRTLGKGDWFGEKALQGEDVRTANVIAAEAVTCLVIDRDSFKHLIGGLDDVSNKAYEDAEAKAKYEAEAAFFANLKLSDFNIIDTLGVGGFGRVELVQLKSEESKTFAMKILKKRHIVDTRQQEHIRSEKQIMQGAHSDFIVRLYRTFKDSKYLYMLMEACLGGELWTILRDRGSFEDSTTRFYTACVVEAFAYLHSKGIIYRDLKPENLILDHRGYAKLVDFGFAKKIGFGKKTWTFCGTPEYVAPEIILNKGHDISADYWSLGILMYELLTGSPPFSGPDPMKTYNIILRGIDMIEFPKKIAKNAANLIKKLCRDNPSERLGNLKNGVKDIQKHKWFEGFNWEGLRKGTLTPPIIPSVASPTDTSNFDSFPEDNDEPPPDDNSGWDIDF
# Description: Platelets were washed as described above and resuspended in Tyrode's buffer (3×10^8 platelets/mL). Platelets were preincubated with TSP1 (2.2 nM) or Rp-8-pCPT-cGMP for 15 minutes prior to treatment with 8-Br-cGMP (100 μM) or NO (DEA/NO 10 μM) for 2 minutes. Treatment was stopped by placing the platelets on ice. Immediately following treatment, platelets were pelleted by centrifugation at 13,000×g at 4° C. for 15 seconds and resuspended in a lysis buffer containing 10 mM HEPES (pH 7.4), 1 mM EDTA, 1 mM 3-Isobutyl-1-methylxanthine, 125 mM KCl, 1 mM phenylmethysulfonylfluoride, 1 μg/ml aprotinin, and 1 μg/ml leupeptin. Resuspended platelets were sonicated on ice 3 times for 10 seconds each before centrifugation at 13,000×g for 5 minutes at 4° C. 100 μg lysate from each sample was incubated at 25° C. for 20 minutes with kinase buffer (150 μM Arg-Lys-Arg-Ser-Arg-Ala-Glu (SEQ ID NO: 17) peptide substrate (Bachem, King of Prussia, Pa.)), 10 mM HEPES pH 7.4, 35 mM β-glycerophosphate, 4 mM MgCl2, 5 μM Rp-8 pCPT-cAMPS, 0.5 mM EDTA, […] [γ-32P]ATPS (Sigma-Aldrich, St. Louis, Mo.)). Kinase assay reactions were terminated by spotting 50 μL of reaction mixture onto nitrocellulose. Nitrocellulose spots were washed 5 times each with 100 μL of 0.5% phosphoric acid before analysis with a scintillation counter.
# [4] = tested on: blood pressure and pulse in mice; experiment: Blood pressure and pulse measurements (tail cuff); assay type: in vivo, mouse; conditions: for blood pressure response: i.p.
# Description: Mean systolic, diastolic and arterial blood pressure (BP) and mean pulse was measured in age and sex matched mice using a computerized tail cuff system (Hatteras Systems, MC4000 Blood Pressure Analysis System, Cary, N.C.). The mice were allowed to acclimate to the apparatus for 5 min prior to the start of measurement. Each animal underwent a cycle of 10 preliminary and 50 experimental pressures measurements for data acquisition and data calculation. Animals were acclimated to the measuring system and protocol for 4 days with treatment with data acquisition being performed on the 5th day. Pressures recordings were performed at the same time each day. Data was accepted if the mouse had valid readings for at least 20 consecutive pulse beats. All studies were performed at the same hour each day.
# Respirations were monitored continuously monitored by direct observation of the animal. Body core temperature was measured via rectal probe. Temperature control was performed using a water-circulating warming surface and heating lamp. Following a 15 minute period of stabilization mean systolic, diastolic and arterial blood pressure and mean pulse measurements were determined.
# [5] = tested on: cutaneous perfusion in mice; assay type: in vivo, mouse; conditions: rectal catheter bolus, core temperature 34.5° C.
# Description: Skin blood flow was measured using laser Doppler imaging (MoorLD1-2λ, Moor Instruments, Devon, England). Briefly, animals were placed in a prone position on a heating pad, and anesthesia was provided by 2% inhalation isoflurane in a 50:50 mixture of oxygen to room air. Core temperature was monitored by rectal probe and was further controlled with a heat lamp. The hair of the dorsum of the animals was clipped and depilated with Nare™ and a template with a 1 cm^2 area used to trace a region of interest (ROI). After equilibration to the experimental set-up analysis of cutaneous blood flow was obtained. The following instrument settings were used: override distance 21 cm; scan time 4 msec/pixel. Results are expressed as the change percent control from baseline of the ROI.
# [6] = tested on: skeletal muscle blood oxygenation in mice; experiment: BOLD MRI of hindlimb muscle after NO challenge; assay type: in vivo, mouse; conditions: for magnitude of increased BOLD MRI signal: DEA/NO 100 nmol/g intrarectal
# Description: MRI images were acquired using a Bruker Biospin 4.7 T scanner and isoflurane anesthesia. Muscle tissue scanned was at rest, so alterations in oxygenation reflected changes in perfusion rather than in oxygen consumption (Krishna et al., Ilar J 42:209-218, 2001; Watterson et al., Cell Signal 17:289-298, 2005). MR measurements were started after the mouse's body temperature reached 37° C. Prior to the experiments, gradient echo based T1 sequence was used to determine the target slice location. A series of T2* weighted gradient echo blood oxygenation level dependent (BOLD) image data sets at transverse to the midpoint of the femur were repeatedly acquired for 30 min to monitor temporal changes in blood oxygenation and blood flow. DEA/NO (100 nmol/g body weight) was injected with saline via the rectal cannula 5.0 min after starting the scan. Imaging parameters used were: TR=450 ms, Flip angle=45, Nex=1, slice thickness=2 mm, matrix size=64×64, total imaging time for the series was 29 min.
# [7] = tested on: murine WT and TSP1-null platelets; experiment: cGMP in murine platelets; assay type: cell-based, mouse; conditions: 100 μM added to Tyrode's
# Description: After induction of general anesthesia with isoflurane 2%, age and sex matched C57BL/6 WT and TSP1-null mice underwent cardiac puncture. Blood was aspirated into 1 cc syringes with a 25 gauge needle containing 100 μl heparin (Heparin Lock Flush, Abbott, Chicago, Ill.), mixed with 100 μl 3% ACD and centrifuged in 1.2 ml S-Monovette separation tubes (Sarstedt, Germany). PRP was aspirated off, centrifuged, and the resulting platelet pellet was resuspended in 200 μl of Tyrode's buffer.
# as §1
compound,measurement,setting,value
3TSR: recombinant type 1 repeats of TSP1,NO stimulated cGMP in platelets,human platelets [1],inhibited NO stimulated cGMP flux
same,NO-stimulated cGMP,[2],inhibited NO-stimulated cGMP responses in WT
same,NO delay of thrombin-induced platelet aggregation,"human platelets [3]; high shear, thrombin 0.2 U/ml",blocked the ability of NO to delay thrombin-induced aggregation
same,NO delay of thrombin-induced platelet aggregation,human platelets [3]; static / low shear conditions,reversed the NO delay of aggregation under static conditions
same,NO-stimulated proliferation,murine ASMC (CD47 null),failed to inhibit
"CCN(CC)/[N+]([O-])=N/O.CCNCC [DEA/NO, diethylamine NONOate]",32P-incorporation into cGK-I selective peptide,cGK-I,strongly induced 32P-incorporation
same,blood pressure response,[4]; TSP1 null versus wild type,significantly greater decreases in blood pressure measurements
same,mean pulse,[4]; after i.p. challenge,tended to increase modestly
same,blood pressure response,[4]; awake wild type and TSP1-null mice,"significant decreases in systolic, diastolic and mean arterial pressure"
same,initial increase in cutaneous perfusion,[5],significantly greater in TSP1 and CD47 null mice
same,magnitude of increased BOLD MRI signal,[6]; TSP1 null mice,25%
same,decreased BOLD signal,[6]; TSP null mice,14%
same,decreased BOLD signal,[6]; WT mice,11%
same,magnitude of increased BOLD MRI signal,[6]; WT mice,15%
"N=C(N)NCCC[C@H](N)C(=O)O [L-arginine, reference compound]",platelet cGMP levels,[7],elevated cGMP levels in TSP1-null but not in WT platelets
